16 molecules from patent US20250059231A1, “Protease inhibitors” (priority 2021, published 2025) can be followed below.

Test [1] concerns the target T1, DENV protease (Dengue virus type 2, UniProt P29990).
T1 construct: The virus-encoded dengue protease comprises the amino-terminal 180 amino acids of NS3 (NS3pro) of the polyprotein
Put plainly: biochemical. The following applies: read-out: inhibition of DENV. In outline:
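DENV protease (100 nM) was pre-incubated 15 min with inhibitors in 50 mM Tris-HCl pH 9.0, 10% ethylene glycol, 0.0016% Brij 58. FRET substrate (50 μM final) started the reaction, monitored 15 min as RFU/s slope. IC50 came from triplicate means versus concentration.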

Test [2] addresses T2, WNV protease (West Nile virus, UniProt P06935).
T2 construct: a trypsin-like serine protease domain in the N-terminal region of the flaviviral NS3 proteins
As to the kind of experiment: WNV protease assay (analogous procedure). The class given is biochemical. Conditions: read-out: IC50 for WNNV.

Test [3] addresses human Trypsin (Homo sapiens, UniProt P07477). Put plainly: Selectivity screening, human serine protease trypsin. The following applies: read-out: inhibition of human Trypsin. The class given is biochemical. Here is the method:
(§1) By catalytic activity of the protease, the cleaved substrate results in increased fluorescence that can be monitored using a BMG Labtech Fluostar OPTIMA Microtiter fluorescence plate reader (excitation wavelength of 320 nm and a monitored emission wavelength of 405 nm). Dilutions were made starting from 10 mM stock solutions in DMSO and final concentrations were measured in triplicates. The inhibitors were preincubated for 15 min with DENV protease (100 nM) in the assay buffer (50 mM Tris-HCl pH 9.0, ethylene glycol (10% v/v), and 0.0016% Brij 58). The enzymatic reaction was initiated by the addition of the FRET substrate (final concentration 50 μM) to obtain a final assay volume of 100 μL per well. The enzymatic activity was monitored for 15 min and determined as a slope of relative fluorescence units per second (RFU/s) for each concentration. The mean of the triplicates were plotted against the corresponding concentration in CDDVault to determine the IC50-values. Analogous procedures were used to determine the inhibitory potency on WNV (Kühl et al., J. Med. Chem. 2020, 63 (15): 8179-8197) and ZIKA protease (Nitsche et al., ACS Med. Chem. Lett. 2019 Feb. 14; 10 (2): 168-174). For selectivity screening of active candidates, similar biochemical assays with human serine proteases trypsin (Weigel et al., J. Med. Chem. 2015, 58 (19), 7719-7733.) and/or thrombin (Nitsche et al., J. Med. Chem. 2013, 56 (21), 8389-8403) were used.

Test [4] concerns the target human Thrombin (Homo sapiens, UniProt P00734). As to the kind of experiment: Selectivity screening, human serine protease thrombin. Conditions: read-out: inhibition of human Thrombin. The test is classed as biochemical. As for the experimental part: as §1
Test [5] has as its target T2, WNV protease. Put plainly: WNV protease assay (analogous procedure). The test is classed as biochemical. As for the experimental part:
as §1

In test [6] the target is T3, ZIKA protease (Zika virus, UniProt Q32ZE1).
T3 construct: a trypsin-like serine protease domain in the N-terminal region of the flaviviral NS3 proteins
T3 sequence (Q32ZE1 1499-1676): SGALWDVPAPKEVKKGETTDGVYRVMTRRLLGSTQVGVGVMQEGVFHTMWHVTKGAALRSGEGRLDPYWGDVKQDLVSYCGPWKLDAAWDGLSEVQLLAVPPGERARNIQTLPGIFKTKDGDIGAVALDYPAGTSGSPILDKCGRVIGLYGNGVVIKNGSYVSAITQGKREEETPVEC
T3 sequence (Q32ZE1 1421-1460): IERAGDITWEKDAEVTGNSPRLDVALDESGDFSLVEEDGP
As to the kind of experiment: biochemical. The following applies: for inhibition at 1 µM / inhibition at 50 µM: read-out: inhibition of ZIKV. Here is the method:
as §1

Like-named read-outs stand apart in the source and are kept apart here. Where a SMILES comes first, the peptide text is derived from it. [ ]: non-standard residue; d: D form. The star is where a group is joined. Arachidoyl = CCCCCCCCCCCCCCCCCCCC(=O)*; Palmitoyl = CCCCCCCCCCCCCCCC(=O)*; hPhe = N[C@@H](CCc1ccccc1)C(=O)O; Phg = N[C@H](C(=O)O)c1ccccc1; β3hK = NCCCC[C@H](N)CC(=O)O; Pip = O=C(O)[C@@H]1CCCCN1

T2 sequence (P06935 1424-1463): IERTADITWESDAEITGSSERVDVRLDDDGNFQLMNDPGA
T2 sequence (P06935 1502-1679): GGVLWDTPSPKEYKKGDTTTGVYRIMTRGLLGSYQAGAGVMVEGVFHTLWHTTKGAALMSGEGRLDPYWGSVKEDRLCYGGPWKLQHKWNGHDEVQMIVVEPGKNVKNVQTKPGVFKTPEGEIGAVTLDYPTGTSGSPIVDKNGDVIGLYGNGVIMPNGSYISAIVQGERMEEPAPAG
T1 sequence (P29990 1398-1437): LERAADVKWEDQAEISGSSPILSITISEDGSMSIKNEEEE
T1 sequence (P29990 1476-1653): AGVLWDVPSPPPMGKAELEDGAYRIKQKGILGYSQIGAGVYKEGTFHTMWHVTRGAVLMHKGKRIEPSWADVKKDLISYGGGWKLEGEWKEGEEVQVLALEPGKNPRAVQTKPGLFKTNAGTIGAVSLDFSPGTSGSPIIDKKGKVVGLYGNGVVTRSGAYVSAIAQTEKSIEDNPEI

On to `CCCCCCCCCCCCCCCCCCCC(=O)N[C@@H](CCCCN)C(=O)N1CCC[C@H]1C(=O)N[C@@H](C)C(=O)N[C@@H](CCCCN)C(N)=O` [compound 125] (Arachidoyl-KPAK-NH2), for which the inhibition at 1 µM was at least 20% in test [1] and at least 10% in test [6]. The inhibition at 50 µM in test [1] was at least 25%; in test [5] it was at least 25%; in test [6] (at 50 μM) it was at least 65%. The IC50 in test [2] was at most 40 µM; in test [6], at most 25 µM. In addition, the inhibition at 5 µM was below 10% in test [3] (at 5 μM) and below 5% in test [4] (at 5 μM). For the same molecule, the inhibition at 25 µM in test [3] (at 25 μM) was below 20%.
On to `CCCCCCCCCCCCCCCC(=O)N[C@@H](CCCCN)C(=O)N1CCC[C@H]1C(=O)N[C@@H](Cc1cnc[nH]1)C(=O)N[C@@H](CCc1ccccc1)C(N)=O` [compound 11] (Palmitoyl-KPH[hPhe]-NH2), for which the inhibition at 50 µM was at least 25% in test [1], at least 25% in test [5] and at least 65% in test [6] (at 50 μM). Besides, the values for the IC50 in test [2] and in test [6] were at most 40 µM and at most 25 µM, respectively. Besides, the inhibition at 5 µM in test [3] (at 5 μM) is below 10%; in test [4] (at 5 μM) it was below 5%. Also, the inhibition at 25 µM in test [3] (at 25 μM) was below 20%. Also, the inhibition at 1 µM in test [6] is at least 10%.
Take `CCCCCCCCCCCCCCCC(=O)N[C@@H](CCCCN)CC(=O)N1CCC[C@H]1C(=O)N[C@@H](C)C(=O)N[C@@H](Cc1ccccc1)C(N)=O` [compound 116] (Palmitoyl-[β3hK]PAF-NH2): the inhibition at 50 µM in test [1] is at least 25%; in test [5], at least 25%; in test [6] (at 50 μM), at least 65%. The IC50 is at most 40 µM in test [2] and at most 25 µM in test [6]. In addition, the inhibition at 5 µM in test [3] (at 5 μM) was below 10%; in test [4] (at 5 μM), below 5%. Further, in test [3] (at 25 μM), the inhibition at 25 µM was below 20%. In addition, the inhibition at 1 µM in test [6] is at least 10%.
As for `CCCCCCCCCCCCCCCC(=O)N[C@@H](CCCCN)CN1CCC[C@H]1C(=O)N[C@@H](C)C(=O)N[C@H](Cc1c[nH]c2ccccc12)C(N)=O` [compound 122], the inhibition at 50 µM is at least 25% in test [1], at least 25% in test [5] and at least 65% in test [6] (at 50 μM). Besides, the IC50 in test [2] was at most 40 µM; in test [6] it was at most 25 µM. The figures for the inhibition at 5 µM in test [3] (at 5 μM) and in test [4] (at 5 μM) were below 10% and below 5%, respectively. The inhibition at 25 µM in test [3] (at 25 μM) was below 20%.
For the molecule `CCCCCCCCCCCCCCCC(=O)N[C@@H](CCCCN)C(=O)N1CCC[C@H]1C(=O)N[C@@H](C)C(=O)N[C@@H](CCc1ccccc1)C(=O)C(N)=O` [compound 6], the inhibition at 50 µM in test [1] is at least 25%; in test [5], at least 25%; in test [6] it was at least 65%. The IC50 was at most 40 µM in test [2] and at most 25 µM in test [6]. Besides, the inhibition at 5 µM in test [3] is below 10%; in test [4] it was below 5%. For the same molecule, the inhibition at 25 µM in test [3] is below 20%.
For `CCCCCCCCCCCCCCCCCCCC(=O)N[C@@H](CCCCN)C(=O)N[C@@H](C)C(=O)N[C@@H](C)C(=O)N[C@H](CCCCN)C(N)=O` [compound 132] (Arachidoyl-KAA[dK]-NH2), the inhibition at 1 µM in test [1] was at least 20%; in test [5] (at 1 μM, read-out: inhibition of WNNV), at least 10%. Also, the inhibition at 50 µM in test [1] and in test [5] was at least 25% in each case. The IC50 in test [2] was at most 40 µM. Besides, the inhibition at 25 µM in test [3] (at 25 μM) is below 20%. Further, in test [4] (at 5 μM), the inhibition at 5 µM is below 5%.
As for `CCCCCCCCCCCCCCCC(=O)N[C@H](CCCCN)C(=O)N[C@@H](C)C(=O)N[C@@H](Cc1ccccc1)C(N)=O` [compound 190] (Palmitoyl-[dK]-Ala-Phe-NH2), the inhibition at 50 µM in test [1] and in test [5] was at least 25% throughout. Further, the IC50 in test [2] was at most 40 µM. For the same molecule, the inhibition at 5 µM is below 10% in test [3] (at 5 μM) and below 5% in test [4] (at 5 μM). Also, the inhibition at 25 µM in test [3] (at 25 μM) was below 20%.
Consider `CCCCCCCCCCCCCCCC(=O)N[C@@H](CCCCN)C(=O)N1CCC[C@H]1C(=O)N[C@H](C(=O)N[C@@H](CCCCN)C(N)=O)c1ccccc1` [compound 13] (Palmitoyl-KP[Phg]K-NH2), for which the inhibition at 50 µM in test [1] and in test [5] was at least 25% throughout. Moreover, the IC50 in test [2] is at most 40 µM. Also, the inhibition at 5 µM was below 10% in test [3] (at 5 μM) and below 5% in test [4] (at 5 μM). Also, in test [3] (at 25 μM), the inhibition at 25 µM is below 20%.
Regarding `CCCCCCCCCCCCCCCC(=O)N[C@@H](CCCCN)C(=O)N[C@@H](C)C(=O)N[C@@H](Cc1cnc[nH]1)C(N)=O` [compound 167] (Palmitoyl-Lys-Ala-His-NH2), the inhibition at 1 µM in test [1] was at least 20%; in test [6] it was at least 10%. Moreover, the figures for the IC50 in test [2] and in test [6] were at most 40 µM and at most 25 µM, respectively. Moreover, the inhibition at 5 µM in test [4] (at 5 μM) was below 5%. Moreover, the inhibition at 50 µM was at least 25% in test [5] and at least 65% in test [6] (at 50 μM).
`CCCCCCCCCCCCCCCC(=O)N[C@@H](CCCCN)C(=O)N[C@@H](C)C(=O)N[C@@H](C)C(=O)N[C@@H](CCc1ccccc1)C(N)=O` [compound 90] (Palmitoyl-KAA[hPhe]-NH2): the inhibition at 50 µM in test [1] and in test [5] was at least 25% each time. Moreover, the IC50 in test [2] is at most 40 µM. For the same molecule, the inhibition at 5 µM in test [3] (at 5 μM) is below 10%; in test [4] (at 5 μM), below 5%. Also, the inhibition at 25 µM in test [3] (at 25 μM) is below 20%.
In the case of `CCCCCCCCCCCCCCCC(=O)N[C@@H](CCCCN)C(=O)N[C@@H](C)C(=O)N[C@@H](CCCCN)C(=O)c1ccccc1` [compound 174], the inhibition at 50 µM in test [1] and in test [5] was at least 25% each time. In addition, in test [2], the IC50 is at most 40 µM. The inhibition at 5 µM in test [3] was below 10%; in test [4], below 5%. Also, the inhibition at 25 µM in test [3] was below 20%.
`CCCCCCCCCCCCCCCC(=O)N[C@@H](CCCCN)C(=O)N1CCCC[C@H]1C(=O)N[C@H](C(=O)N[C@@H](CCCCN)C(N)=O)c1ccccc1` [compound 16] (Palmitoyl-K[Pip][Phg]K-NH2): the inhibition at 50 µM in test [1] and in test [5] was at least 25% in each case. Further, the IC50 in test [2] is at most 40 µM. Moreover, the inhibition at 5 µM in test [3] (at 5 μM) is below 10%; in test [4] (at 5 μM) it was below 5%. Further, the inhibition at 25 µM in test [3] (at 25 μM) is below 20%.
For `CCCCCCCCCCCCCCCC(=O)N[C@@H](CCCCN)C(=O)N[C@@H](C)C(=O)N[C@@H](C)C(=O)N[C@H](C=O)CCCCN` [compound 180] (Palmitoyl-KAAK-aldehyde), the inhibition at 50 µM in test [1] and in test [5] was at least 25% each time. In test [2], the IC50 was at most 40 µM. In test [4] (at 5 μM), the inhibition at 5 µM was below 5%.
As for `CCCCCCCCCCCCCCCC(=O)N[C@@H](CCCCN)C(=O)N[C@@H](C)C(=O)N[C@@H](CCCCN)C(=O)C(N)=O` [compound 176], the inhibition at 50 µM in test [1] was at least 25%; in test [5] it was at least 25%; in test [6] (at 50 μM) it was at least 65%. The values for the IC50 in test [2] and in test [6] were at most 40 µM and at most 25 µM, respectively. Besides, the inhibition at 5 µM in test [4] (at 5 μM) was below 5%.
As to `CCCCCCCCCCCCCCCC(=O)N[C@@H](CCCCN)C(=O)N[C@@H](C)C(=O)N[C@@H](C)C(=O)N[C@@H](Cc1ccccc1)C(N)=O` [compound 17] (Palmitoyl-KAAF-NH2), the inhibition at 50 µM in test [1] and in test [5] was at least 25% in each case. In addition, in test [2], the IC50 is at most 40 µM. The inhibition at 5 µM in test [3] (at 5 μM) was below 10%; in test [4] (at 5 μM), below 5%. Besides, the inhibition at 25 µM in test [3] (at 25 μM) was below 20%.
`CCCCCCCCCCCCCCCC(=O)N[C@@H](CCCCN)C(=O)N[C@@H](C)C(=O)N[C@@H](C)C(=O)N[C@@H](C=O)CCCCN` [compound 181] (Palmitoyl-KAA[dK]-aldehyde): the inhibition at 50 µM in test [1] and in test [5] was at least 25% each time. Also, the IC50 in test [2] was at most 40 µM. For the same molecule, in test [3] (at 25 μM), the inhibition at 25 µM was below 20%. The inhibition at 5 µM in test [4] (at 5 μM) is below 5%.

The term inhibition denotes the share of the control response that was lost under treatment. One may read the IC50 as the concentration that gives 50% inhibition.
